Laboratory results from publication PMC2896895 (Cell cycle (Georgetown, Tex.), 2009).

Columns and labels:
[1] = system: PSA levels; conditions: Phase I clinical trial, castration resistant PCa; cited from earlier work
[2] = system: AR LBD; conditions: non-competitive antagonists; cited from earlier work
[3] = system: CWR22R cells; experiment: Colony formation / growth assay, CWR22R; format: cell-based, human
[4] = system: Prostate Specific Antigen (PSA) expression in C4-2 cells; experiment: PSA secretion by C4-2 cells; format: cell-based, human; conditions: 10μM of compounds, 72h, PSA in medium vs 0.1% DMSO
[5] = system: C4-2 cells; experiment: Colony formation assay, C4-2; format: cell-based, human
[6] = system: LNCaP cells; experiment: Colony formation assay, LNCaP; format: cell-based, human
[7] = system: AR-dependent luciferase reporter (ARE-Luc) in CWR22R cells; experiment: AR-dependent luciferase reporter; format: cell-based, human; conditions: 10μM of compounds, 24h, vs 0.1% DMSO
[8] = number of colonies, vs 0.1% DMSO

CNC(=O)c1ccc(N2C(=S)N(c3ccc(C#N)c(C(F)(F)F)c3)C(=O)C2(C)C)cc1F [MDV3100]
PSA levels in patients [1]: efficacy in decreasing PSA levels

CNC(=O)c1ccc(N2C(=S)N(c3ccc(C#N)c(C(F)(F)F)c3)C(=O)C23CCC3)cc1F [RD162]
binding to the AR LBD [2]: bind with high affinity

CC(O)(CS(=O)(=O)c1ccc(F)cc1)C(=O)Nc1ccc(C#N)c(C(F)(F)F)c1 (stereo not shown) [Bic, bicalutamide]
growth of androgen-independent CWR22R cells ([3]; colony formation, 10μM): did not suppress growth | Survival of cells in the presence of 10μM of a compound (DMSO=100%), CWR22R [3, 8]: 100% | PSA secretion in C4-2 cells [4]: 0 % of DMSO | growth of androgen-independent C4-2 cells ([5]; colony formation, 10μM): did not suppress growth | Survival of cells in the presence of 10μM of a compound (DMSO=100%), C4-2 [5, 8]: 91% | growth of androgen-sensitive LNCaP cells ([6]; colony formation, 10μM): suppressed growth | Survival of cells in the presence of 10μM of a compound (DMSO=100%), LNCaP [6, 8]: 19% | Activity of ARE-Luc in CWR22R11 cells [7]: 43 % of DMSO
